Measured values as given in article PMC5786306, “An AKAP-Lbc-RhoA interaction inhibitor promotes the translocation of aquaporin-2 to the plasma membrane of renal collecting duct principal cells” (PLoS ONE, 2018).

Tests used:
[1] = tested on: Gα12- or Gαq-mediated RhoA activation in HEK293 cells; experiment: Rhotekin pulldown of active RhoA in HEK293 cells; type: cell-based, human; conditions: 50 μM
Description: (§1) (A) Full length AKAP-Lbc (AKAP13) and the indicated GEFs were transiently expressed in HEK293 cells. […] (B) Scaff10 inhibits Gα12- but not Gαq-mediated RhoA activation. The indicated Gα12 and Gαq-mutants were transiently co-expressed with AKAP-Lbc and p63RhoGEF in HEK293 cells as indicated. The cells were left untreated or incubated with Scaff10 (50 μM). The fraction of active RhoA was determined using Rhotekin pulldown assays. Shown is one representative out of three experiments. All GEF constructs were in pCMV3a and Myc-tagged (30 ng per transfection). Expression of AKAP-Lbc, LARG and PDZ-RhoGEF is shown in Fig 7 of the main manuscript. […] Lower panel: Corresponding values of fluorescence to upper panel. […] Lower panel: Corresponding values of fluorescence to upper panel. (B) F norm = normalised fluorescence (fluoresence steady state/fluorescence initial state) indicated in ‰. […] The viability of the indicated cells was determined using a CellTiter-Glo®Luminescent Cell Viability Assay (Promega, Wisconsin, USA) according to the manufacturer's instructions. The assay is based on the quantification of ATP as an indicator of metabolically active cells. […] Viability was assessed after 1 and 24 h incubation with Scaff10-8 in the indicated concentrations. An equal volume of CellTiter-Glo Reagent was added, plates were shaken and luminescence monitored over time with the plates held at 22°C. […]

viability of cells = experiment: CellTiter-Glo luminescent cell viability assay (ATP); type: cell-based; conditions: up to 100 μM, 1 and 24 h
Description: as §1

GST = GST (Schistosoma japonicum, UniProt P08515); experiment: ITC control with GST alone; type: binding
Description: ITC measurements were essentially carried out as previously described. The stabilizing RhoA mutant F25N [41] was purified as a GST-RhoA fusion in its GDP-bound form (final gel filtration purification step in 20 mM HEPES, pH 7.5, 150 mM NaCl, 2 mM DTT, 50 μM GDP). In order to exchange GDP against GTPγS, GST-RhoA loaded with GDP was incubated for 20 min in ITC nucleotide exchange buffer (50 mM HEPES, pH 7.5, 20 mM EDTA) at 25°C followed by three dilution and concentration steps in Amicon tubes (10,000 MWCO) using ITC dialysis buffer (50 mM HEPES, pH 7.4, 150 mM NaCl, 5 mM MgCl2, 2 mM β-mercaptoethanol). The nucleotide-loading state was confirmed by HPLC. All proteins used in ITC measurements were dialyzed overnight against ITC dialysis buffer. Protein concentrations were determined with NanoDrop ND-1000. GDP or GTPγS (final concentration 2 mM) and DMSO (2%) were added to the proteins prior to the ITC measurements. Scaff10-8 was dissolved in the same buffer (including 2% DMSO and 2 mM GDP or GTPγS). ITC measurements were performed on a VP-ITC (GE Healthcare, München, DE) at 15°C. Titrations were conducted using 14.8 μM Scaff10-8 in the cell and 235 μM (GST control), 222 μM (GST-RhoA, GDP-bound) or 210 μM (GST-RhoA, GTPγS-bound) in the syringe. The cell was stirred at 351 rpm and a total of 27 x 10 μl injections were added to the cell, separated by 240 s of equilibration. […]

[2] = target: T1, GST-RhoA (F25N), GDP- or GTPγS-bound (Homo sapiens, UniProt P61586, F25N); experiment: Isothermal titration calorimetry (ITC) with GST-RhoA; type: binding
T1 construct: made in house
Description: ITC measurements were essentially carried out as previously described. The stabilizing RhoA mutant F25N [41] was purified as a GST-RhoA fusion in its GDP-bound form (final gel filtration purification step in 20 mM HEPES, pH 7.5, 150 mM NaCl, 2 mM DTT, 50 μM GDP). In order to exchange GDP against GTPγS, GST-RhoA loaded with GDP was incubated for 20 min in ITC nucleotide exchange buffer (50 mM HEPES, pH 7.5, 20 mM EDTA) at 25°C followed by three dilution and concentration steps in Amicon tubes (10,000 MWCO) using ITC dialysis buffer (50 mM HEPES, pH 7.4, 150 mM NaCl, 5 mM MgCl2, 2 mM β-mercaptoethanol). The nucleotide-loading state was confirmed by HPLC. All proteins used in ITC measurements were dialyzed overnight against ITC dialysis buffer. Protein concentrations were determined with NanoDrop ND-1000. GDP or GTPγS (final concentration 2 mM) and DMSO (2%) were added to the proteins prior to the ITC measurements. Scaff10-8 was dissolved in the same buffer (including 2% DMSO and 2 mM GDP or GTPγS). ITC measurements were performed on a VP-ITC (GE Healthcare, München, DE) at 15°C. Titrations were conducted using 14.8 μM Scaff10-8 in the cell and 235 μM (GST control), 222 μM (GST-RhoA, GDP-bound) or 210 μM (GST-RhoA, GTPγS-bound) in the syringe. The cell was stirred at 351 rpm and a total of 27 x 10 μl injections were added to the cell, separated by 240 s of equilibration. The data were fitted using the Microcal Origin software (version 7.0) and a one-site binding model. We consistently observed a binding number close to N = 0.5 (RhoA/Scaff10-8). This observation may be due to the binding of two molecules of Scaff10-8 per one molecule of GST-RhoA for both the GDP-bound and GTPγS-bound form of GST-RhoA, or due to some inaccuracy in the determination of protein or compound concentrations. The data were thus fitted using a fixed binding number of N = 0.5.

T1 sequence (P61586 whole entry F25N): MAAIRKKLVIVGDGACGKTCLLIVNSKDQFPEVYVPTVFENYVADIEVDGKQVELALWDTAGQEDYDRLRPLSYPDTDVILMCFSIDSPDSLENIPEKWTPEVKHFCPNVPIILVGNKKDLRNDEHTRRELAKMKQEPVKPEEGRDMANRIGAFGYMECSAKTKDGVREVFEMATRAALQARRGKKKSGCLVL
Sequence of GST (P08515 whole entry, the tested form may be a part): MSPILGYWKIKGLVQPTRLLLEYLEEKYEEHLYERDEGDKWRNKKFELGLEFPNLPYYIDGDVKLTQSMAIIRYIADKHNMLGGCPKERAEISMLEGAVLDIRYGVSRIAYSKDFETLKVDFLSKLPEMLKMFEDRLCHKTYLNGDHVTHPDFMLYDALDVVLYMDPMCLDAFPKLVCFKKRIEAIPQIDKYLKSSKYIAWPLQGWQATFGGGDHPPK

Structure (SMILES): COc1ccc(-c2coc3cc4oc(=O)c(C)c(C)c4cc23)cc1 [Scaff10, 3-(4-Methoxyphenyl)-5,6-dimethyl-furo[3,2-g]chromen-7-one]
- RhoA activation by constitutively active G12 (G12QL) with AKAP-Lbc [1]: abolished this activation
- RhoA activation through constitutively active Gq (GqRC) [1]: did not affect

Structure (SMILES): COc1ccc(-c2coc3cc4oc(=O)c(CCC(=O)O)c(C)c4cc23)cc1 [Scaff10-8, 3-[3-(4-Methoxyphenyl)-5-methyl-7-oxo-furo[3,2-g]chromen-6-yl] propanoic acid]
- viability of cells (ATP quantitation) (viability of cells): did not affect the viability
- binding to GST control (GST): did not bind
- KD for GST-RhoA loaded with GDP ([2]; 15°C, 2 mM GDP, fixed N = 0.5): 20 ± 1 µM
- KD for GST-RhoA loaded with GTPγS ([2]; 15°C, 2 mM GTPγS, fixed N = 0.5): 38 ± 4 µM
- binding number N (RhoA/Scaff10-8) ([2]; GDP- and GTPγS-bound forms): ~0.5
